The data set is described as follows: Pharmacokinetic study of 15 LJF components in plasma of RSV-infected mice after oral LJF extract (UHPLC-QQQ MS). Format: in vivo. As to conditions: for AUC(0-t) / AUC(0-inf) / Cmax / MRT last / half-life / Tmax: mouse. The protocol: The LJF (12.0 g) were pulverized and soaked in pure water at a solid: liquid ratio of 1:200 and followed by extraction for 30 min. Then, the LJF extract was obtained by filtration, centrifugation (5000 rpm, 10 min) and concentration. Finally, the remains were freeze-dried and stored at −20 °C for subsequent pharmacokinetic assays.
All mice fasted for 1 night after being acclimatized for 7 days (no water restriction) and were randomly separated into 3 groups with 6 mice in each group. One group of healthy mice was used as the normal control group and administered physiological saline; the model group was established by intranasal infusion of RSV (TCID50 = 10^−6, 35 μL/mouse) and administered physiological saline. Members of the drug group were orally administered with LJF extract at the dose of 12 g/kg after infecting RSV. At 0.25 h, 0.5 h, 0.75 h, 1 h, 1.5 h, 2 h, 3 h,4 h, 6 h, 8 h, 10 h, 12 h and 24 h after administration blood samples (approximately 500 μL) were collected into anticoagulant tubes. The blood samples were centrifuged at 3500 rpm, 4 °C for 10 min, and the plasma (upper layer) was separated and stored at −80 °C till analysis. At the same time, the lung tissue was removed, weighed and placed in the EP tube together with five times the weight of the lung tissue in PBS solution containing 1% PMSF. Subsequently, the tissue samples were homogenized using the tissue grinder, and centrifugation to obtain a supernatant for further examination.
An amount of 50 μL IS and 2 mL acetonitrile were mixed into 200 μL plasma, after which the mixture was centrifuged (12,000 rpm, 4 °C, 10 min) and dried with nitrogen. The residue was dissolved in 70% acetonitrile containing 1% formic acid, centrifuged and subsequently the supernatant (2 μL) was injected into the UHPLC-QQQ-MS system.
Agilent 1260 series (Santa Clara, CA, USA) chromatography system was equipped with a solvent degasser, G1311B quaternary pump and G1329B automated injector. The elution was performed on a Halo® C18 column (2.1 × 100 mm, 2.7 μm) at 30 °C, and the mobile phase consisted of 0.05% formic acid in water for solvent A and 0.05% formic acid in acetonitrile for solvent B at a flow rate of 0.3 mL/min. The gradient elution was as follows: 0–30 min at 5–25% B, 30–35 min at 25–55% B, 35–45 min at 55–70% B, 45–55 min at 70–100% B, and 5 μL for analysis.
The MS/MS analysis was performed by Agilent 6470 Triple Quadrupole LC/MS (Santa Clara, CA, USA) with an ESI source. MRM was selected for the detection of the standards and internal standard with a dwell time of 2 ms. The mass spectrometry conditions were optimized as follows: Nebulizer pressure: 50 psi; capillary: positive: 4000 V, negative: 3500 V; cell acceleration voltage: 5 V; gas temp: 350 °C and flow rate at 10 L/min. The acquired data were processed and analyzed by Mass Hunter Workstation quantitative analysis.
Fifteen standards and IS were optimized for mass conditions by the positive and negative ion modes of the chromatographic system, respectively. The pharmacokinetics of 15 chemical constituents in RSV-infected mice were assessed using the UPLC-QQQ-MS/MS method.
The pharmacokinetic parameters, including maximum concentration (Cmax), time to reach Cmax (Tmax), the elimination half-life (T1/2), mean residence time (MRT), and area under the concentration–time curve (AUC) were calculated using non-compartmental analysis by Phoenix 8.1.0.3530.

Setting [1] is: RSV mice plasma, oral LJF extract 12.0 g/kg.
Setting [2] is: plasma, po, 12 g/kg, RSV mice plasma, oral LJF extract 12.0 g/kg, n = 6, read-out: AUC(0–t).
Setting [3] is: plasma, po, 12 g/kg, RSV mice plasma, oral LJF extract 12.0 g/kg, n = 6, read-out: AUC(0–∞).
[4] abbreviates: plasma, po, 12 g/kg, RSV mice plasma, oral LJF extract 12.0 g/kg, n = 6, read-out: Cmax.
Setting [5] is: plasma, po, 12 g/kg, RSV mice plasma, oral LJF extract 12.0 g/kg, n = 6, read-out: MRT(0–t).
[6] abbreviates: plasma, po, 12 g/kg, RSV mice plasma, oral LJF extract 12.0 g/kg, n = 6, read-out: T1/2 (converted).
The mark [7] stands for this setting: RSV mice plasma, oral LJF extract 12.0 g/kg, n = 6, read-out: Tmax.

Seven compounds from publication PMC10537356, “Analyzing the Material Basis of Anti-RSV Efficacy of Lonicerae japonicae Flos Based on the PK-PD Model” (Molecules, 2023) can be followed below.

The structures appear in SMILES notation. Like-named read-outs stand apart in the source and are kept apart here.

The AUC(0-t) is exposure summed from dosing to a finite time, without extrapolation to infinity. What is called Cmax is the highest concentration seen after dosing. The term Tmax denotes the time from dosing to the highest level. `O=C(C=Cc1ccc(O)c(O)c1)OC1CC(O)(C(=O)O)CC(OC(=O)C=Cc2ccc(O)c(O)c2)C1O` (stereo not shown) [Isochlorogenic acid A]: under setting [1], the “shape of the concentration–time curve” value is on record as “double or multiple peaks”. The AUC(0-t) under setting [2] worked out at 1070 ng·h/mL. In addition, the AUC(0-inf) under setting [3] was 1450 ng·h/mL. Further, the highest concentration (Cmax) under setting [4] was determined as 822 ± 53.9 ng/mL. For the same compound, the MRT last under setting [5] was 4.64 ± 0.289 h. For the same compound, under setting [6], the half-life is 1600 ± 271 min. The time to peak (Tmax) under setting [7] is 2 h.
On to `O=c1cc(-c2ccc(O)c(O)c2)oc2cc(O[C@@H]3O[C@H](CO)[C@@H](O)[C@H](O)[C@H]3O)cc(O)c12` [Luteoloside], for which, under setting [1], the “shape of the concentration–time curve” value was “double or multiple peaks”, the “time of first peak of plasma concentration” value is 30 min and the “time of second peak of plasma concentration” value was 2 h. In addition, the AUC(0-t) (in vivo, RSV mice plasma, oral LJF extract 12.0 g/kg, n = 6, read-out: AUC(0–t)) was 15.8 ± 0.991 ng·h/mL. In addition, the AUC(0-inf) (in vivo, RSV mice plasma, oral LJF extract 12.0 g/kg, n = 6, read-out: AUC(0–∞)) came to 15.9 ± 1.01 ng·h/mL. Moreover, the Cmax (in vivo, RSV mice plasma, oral LJF extract 12.0 g/kg, n = 6, read-out: Cmax) was 16.5 ± 1.97 ng/mL. Further, the MRT last (in vivo, RSV mice plasma, oral LJF extract 12.0 g/kg, n = 6, read-out: MRT(0–t)) came out at 1.5 ± 0.0928 h. The half-life (in vivo, RSV mice plasma, oral LJF extract 12.0 g/kg, n = 6, read-out: T1/2 (converted)) is 20.6 ± 5.49 min. Where the note is “in vivo, RSV mice plasma, oral LJF extract 12.0 g/kg, n = 6, read-out: Tmax”, the time of peak concentration (Tmax) was 0.5 h.
Consider `C=C[C@H]1[C@H](O[C@@H]2O[C@H](CO)[C@@H](O)[C@H](O)[C@H]2O)OC=C2C(=O)OCC[C@]21O` [Swertiamarin], for which the “shape of the concentration–time curve” value under setting [1] is reported as “double or multiple peaks”. Under setting [2], the AUC(0-t) is 21500 ng·h/mL. Further, under setting [3], the AUC(0-inf) stood at 22900 ng·h/mL. Also, the highest concentration (Cmax) under setting [4] came to 2450 ng/mL. Moreover, under setting [5], the MRT last came to 7.37 ± 0.54 h. The half-life under setting [6] was 309 ± 91.2 min. The Tmax under setting [7] came out at 1 h.
For `O=C(C=Cc1ccc(O)c(O)c1)OC1C(O)CC(O)(C(=O)O)CC1O` (stereo not shown) [Cryptochlorogenic acid], under setting [1], the “shape of the concentration–time curve” value was “double or multiple peaks”. Further, under setting [2], the AUC(0-t) came out at 1260 ng·h/mL. For the same compound, the AUC(0-inf) under setting [3] is 1320 ng·h/mL. Also, under setting [4], the Cmax worked out at 1410 ng/mL. For the same compound, the MRT last under setting [5] stood at 2.79 ± 0.225 h. The half-life under setting [6] was 810 ± 179 min. In addition, the Tmax under setting [7] amounted to 2 h.
As to `C=C[C@H]1[C@H](O[C@@H]2O[C@H](CO)[C@@H](O)[C@H](O)[C@H]2O)OC=C2C(=O)OCC[C@H]21` [Sweroside], where the note is “in vivo, po, 12 g/kg”, the time of peak concentration (Tmax) amounted to 2 h. This compound also displayed an AUC(0-t) (in vivo, po, 12 g/kg, AUC(0–t)) of 14200 ng·h/mL. The AUC(0-inf) (in vivo, po, 12 g/kg, AUC(0–∞)) is 17200 ng·h/mL. Also, for the setting “in vivo, po, 12 g/kg, Cmax”, the maximum concentration (Cmax) came out at 4630 ng/mL. The compound also yielded an MRT last (in vivo, po, 12 g/kg, MRT(0–t)) of 7.17 ± 0.274 h. The compound also gave a half-life (in vivo, po, 12 g/kg, T1/2) of 606 ± 135 min.
On to `C=C[C@H]1[C@H](O[C@@H]2O[C@H](CO)[C@@H](O)[C@H](O)[C@H]2O)OC=C2C(=O)OC(O)C[C@H]21` (stereo partly shown) [Secologanic acid], for which the “shape of the concentration–time curve” value under setting [1] is reported as “double or multiple peaks”. In addition, the AUC(0-t) under setting [2] was found to be 12100 ng·h/mL. For the same compound, under setting [3], the AUC(0-inf) came to 13500 ng·h/mL. For the same compound, the Cmax under setting [4] was determined as 5730 ng/mL. Under setting [5], the MRT last is 4.88 ± 0.0632 h. Moreover, the half-life under setting [6] was 654 ± 148 min. The Tmax under setting [7] came out at 2 h.
As to `C=C[C@H]1[C@H](O[C@@H]2O[C@H](CO)[C@@H](O)[C@H](O)[C@H]2O)OC=C(C(=O)OC)[C@H]1CC(=O)O` [Secoxyloganin], the “shape of the concentration–time curve” value under setting [1] is reported as “double or multiple peaks”. Moreover, the AUC(0-inf) under setting [3] was 27700 ng·h/mL. Besides, the Cmax under setting [4] amounted to 4670 ng/mL. Besides, under setting [5], the MRT last amounted to 7.19 ± 0.139 h. Also, the half-life under setting [6] was 488 ± 76.8 min. Moreover, under setting [7], the Tmax amounted to 2 h.
